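Tested at 5 concentrations; 48 h exposure; 96-well plates; endpoints linearly interpolated, else capped at highest concentration. The concentration for 50% growth inhibition is given as GI50.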 The source made the active and inactive calls. Rule as the data show it: active = GI50 up to about 1.1 µM and inactive = higher.
Experiments:
Assay in all cases: growth of human tumour cells (NCI), 48 h
[1] = system: MCF7
[2] = system: BT-549
[3] = system: SK-MEL-5
[4] = system: 786-0
[5] = system: SN12C
[6] = system: HCC 2998
[7] = system: SK-MEL-2
[8] = system: OVCAR-5
[9] = system: TK-10
[10] = system: KM12
[11] = system: UACC-257
[12] = system: OVCAR-8
[13] = system: COLO 205
[14] = system: T47D
[15] = system: SNB-75
[16] = system: HCT-116
[17] = system: SW-620
[18] = system: SF-268
[19] = system: LOX IMVI
[20] = system: RXF 393
[21] = system: OVCAR-4
[22] = system: PC-3
[23] = system: OVCAR-3
[24] = system: CAKI-1
[25] = system: HT-29
[26] = system: NCI-H522
[27] = system: HL-60
[28] = system: RPMI-8226
[29] = system: NCI-H23
[30] = system: MOLT-4
[31] = system: MDA-MB-435
[32] = system: SK-MEL-28
[33] = system: A498
[34] = system: ACHN
[35] = system: CCRF-CEM
[36] = system: A549
[37] = system: HOP-92
[38] = system: DU-145
[39] = system: UACC-62
[40] = system: SK-OV-3
[41] = system: SNB-19
[42] = system: MDA-MB-231
[43] = system: NCI/ADR-RES
[44] = system: EKVX
[45] = system: IGROV-1
[46] = system: Malme-3M
[47] = system: HOP-62
[48] = system: NCI-H226
[49] = system: SF-295
[50] = system: UO-31
[51] = system: K562
[52] = system: M14
[53] = system: U-251
[54] = system: HCT-15
[55] = system: MDA-N
[56] = system: Hs-578T
[57] = system: NCI-H460
[58] = system: SF-539

Measured: GI50

OCC(O)CNc1ncnc2ccccc12 (centres undefined)
inactive: [1] > 100 µM | [2] > 100 µM | [3] > 100 µM | [4] > 100 µM | [5] > 100 µM | [6] > 100 µM | [7] > 100 µM | [8] > 100 µM | [9] > 100 µM | [10] > 100 µM | [11] > 100 µM | [12] > 100 µM | [13] > 100 µM | [14] > 100 µM | [15] > 100 µM | [16] > 100 µM | [17] > 100 µM | [18] > 100 µM | [19] > 100 µM | [20] > 100 µM | [21] > 100 µM | [22] > 100 µM | [23] > 100 µM | [24] > 100 µM | [25] > 100 µM | [26] > 100 µM | [27] > 100 µM | [28] > 100 µM | [29] > 100 µM | [30] > 100 µM | [31] > 100 µM | [32] > 100 µM | [33] > 100 µM | [34] > 100 µM | [35] > 100 µM | [36] > 100 µM | [37] > 100 µM | [38] > 100 µM | [39] > 100 µM | [40] > 100 µM | [41] > 100 µM | [42] > 100 µM | [43] > 100 µM | [44] > 100 µM | [45] > 100 µM | [46] > 100 µM | [47] > 100 µM | [48] > 100 µM | [49] > 100 µM | [50] > 100 µM | [51] > 100 µM | [52] > 100 µM | [53] > 100 µM | [55] > 100 µM | [56] > 100 µM | [57] > 100 µM
> 100 µM: [54]

COc1cc(/C=C2\C[C@H]3[C@@H]4CC=C5C[C@@H](O)CC[C@]5(C)[C@H]4CC[C@]3(C)C2=O)cc(OC)c1OC
22.1 µM: [54]
active: [27] 0.366 µM
inactive: [1] 20.8 µM | [2] 33.4 µM | [3] 12.5 µM | [4] 26.6 µM | [5] 26.1 µM | [6] 27.6 µM | [7] 28.8 µM | [8] 39.6 µM | [9] 37.2 µM | [10] 27.2 µM | [11] 29.2 µM | [12] 34.6 µM | [13] 20.7 µM | [14] 12.6 µM | [15] 30.6 µM | [16] 20.1 µM | [17] 39.6 µM | [18] 51.5 µM | [19] 22 µM | [20] 19.6 µM | [21] 39.4 µM | [22] 28.1 µM | [23] 26.2 µM | [24] 36.9 µM | [25] 19.9 µM | [26] 16.9 µM | [28] 6.98 µM | [29] 35.3 µM | [30] 16.3 µM | [31] 29.8 µM | [32] 45.7 µM | [33] 51.6 µM | [34] 30.5 µM | [36] 13.2 µM | [37] 30.3 µM | [38] 39.1 µM | [39] 37.1 µM | [40] 53.1 µM | [41] 27.7 µM | [42] 26.4 µM | [43] 27.5 µM | [44] 33.5 µM | [45] 64.1 µM | [46] 32.7 µM | [47] 26.4 µM | [48] 31.4 µM | [49] 19 µM | [50] 17.5 µM | [51] 12.2 µM | [52] 24.4 µM | [53] 32.1 µM | [55] 29.1 µM | [56] 40.6 µM | [58] 49 µM | [57] 27.4 µM
